Measured values reported in US5925731A, “Endothelin antagonist peptides” (Takeda Chemical Industries, Ltd., priority 1995, dated 1999).
*1 amine or outer side, *2 acyl side, *3 side chain or, on linkers, in order; H or OH if unused. Where a SMILES comes first, the peptide text is derived from it. [ ]: non-standard residue; d: D form. The star is where a group is joined. Piperazinyl(4-(2-MeOPh)) = COc1ccccc1N1CCN(*)CC1; Piperazinyl(4-Ph) = c1ccc(N2CCN(*)CC2)cc1; X3 = COc1ccc(C)cc1N1CCN(*)CC1; X2 = COc1cccc(N2CCN(*)CC2)c1; dNle = CCCC[C@@H](N)C(=O)O; X4 = Fc1ccccc1N1CCN(*)CC1; Nle = CCCC[C@H](N)C(=O)O; CO = O=C([*:1])[*:2]; X1 = C1CCCN(*)CC1; Moc = COC(=O)*; For = O=C*

Key:
[1] = target: T1, human endothelin receptor ETA (Homo sapiens, UniProt P25101); experiment: Radioiodinated endothelin-1 binding to membrane fraction of CHO cells expressing human endothelin receptor ETA; details: radioactive-iodine-labeled endothelin-1, 25° C., one hour
T1 construct: expressed in transfected cells; host or cells: CHO cells (membrane fraction)
T1 sequence (P25101 21-427): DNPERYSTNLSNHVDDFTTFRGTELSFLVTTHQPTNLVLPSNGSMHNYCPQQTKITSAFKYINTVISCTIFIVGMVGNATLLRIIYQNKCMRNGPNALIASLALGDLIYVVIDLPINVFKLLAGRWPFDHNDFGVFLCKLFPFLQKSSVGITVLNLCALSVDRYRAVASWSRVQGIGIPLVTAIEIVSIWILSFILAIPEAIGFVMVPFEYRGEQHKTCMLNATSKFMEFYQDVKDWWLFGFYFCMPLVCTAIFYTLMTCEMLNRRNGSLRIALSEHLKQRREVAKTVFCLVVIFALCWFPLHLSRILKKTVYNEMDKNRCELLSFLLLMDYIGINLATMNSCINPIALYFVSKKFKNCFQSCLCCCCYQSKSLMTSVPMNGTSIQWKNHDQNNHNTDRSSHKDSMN
Protocol: (§1) The membrane fraction of CHO cells on which human endothelin receptor (ETA or ETB) was expressed was diluted to 0.15 mg/ml with an assaying buffer and dispensed to assaying tubes at 100 μl per tube. To this membrane fraction suspension were added 2 μl of a solution of endothelin-1 labeled with radioactive iodine (5 nM) and 3 μl of a 50% dimethyl sulfoxide of the test compound, followed by incubation at 25° C. for one hour. The membrane fraction suspension was diluted with 900 μl of an ice-cooled assaying buffer and centrifuged at 12,000×G for 10 minutes to separate supernatant and precipitate. The precipitate contained cell membranes and endothelin receptors embedded therein. The receptor-bound endothelin, labeled with radioactive iodine, was also recovered in the precipitate. The radioactive iodine in this precipitate was counted, using a gamma ray counter, to determine the amount of radioactive-iodine-labeled endothelin-1 bound to the endothelin receptors. The results of the quantitative determination were shown in the respective IC50 (nm) values in the following Table 2.

[2] = target: T2, human endothelin receptor ETB (Homo sapiens, UniProt P24530); experiment: Radioiodinated endothelin-1 binding to membrane fraction of CHO cells expressing human endothelin receptor ETB; details: radioactive-iodine-labeled endothelin-1, 25° C., one hour
T2 construct: expressed in transfected cells; host or cells: CHO cells (membrane fraction)
T2 sequence (P24530 27-442): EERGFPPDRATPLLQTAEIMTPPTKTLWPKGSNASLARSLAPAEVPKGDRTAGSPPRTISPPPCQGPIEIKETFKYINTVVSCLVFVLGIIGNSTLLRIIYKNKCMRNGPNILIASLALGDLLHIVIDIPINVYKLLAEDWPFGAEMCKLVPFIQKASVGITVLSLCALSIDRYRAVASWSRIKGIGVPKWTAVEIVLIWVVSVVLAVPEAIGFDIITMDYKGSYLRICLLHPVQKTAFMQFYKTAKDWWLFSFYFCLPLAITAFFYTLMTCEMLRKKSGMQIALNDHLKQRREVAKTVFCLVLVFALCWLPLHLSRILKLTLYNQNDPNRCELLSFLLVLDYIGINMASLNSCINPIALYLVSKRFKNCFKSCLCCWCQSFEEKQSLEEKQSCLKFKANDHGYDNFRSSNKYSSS
Protocol: as §1

Structure (SMILES) | IC50 [1] | IC50 [2]
CCCC[C@@H](NC(=O)[C@@H](Cc1cn(C(=O)OC)c2ccccc12)NC(=O)[C@H](CC(C)C)NC(=O)N1CCCCCC1)C(=O)N[C@@H](CC(=O)N1CCN(c2ccccc2)CC1)C(=O)O [W. Ex. 3, Hexamethyleniminocarbonyl-Leu-D-Trp(COOMe)-D-Nle-Asp (Php)] ({X1-CO}-L[dW](Moc)[dNle]D(Piperazinyl(4-Ph))-OH) | 45 nM | 34 nM
CCCC[C@@H](NC(=O)[C@@H](Cc1cn(C(=O)OC)c2ccccc12)NC(=O)[C@H](CC(C)C)NC(=O)N1CCCCCC1)C(=O)N[C@H](CC(=O)N1CCN(c2ccccc2OC)CC1)C(=O)O [W. Ex. 5, Hexamethyleniminocarbonyl-Leu-D-Trp(COOMe)-D-Nle-D-Asp (2MeOPhp)] ({X1-CO}-L[dW](Moc)[dNle][dD](Piperazinyl(4-(2-MeOPh)))-OH) | 7.1 nM | 7.9 nM
CCCC[C@@H](NC(=O)[C@@H](Cc1cn(C(=O)OC)c2ccccc12)NC(=O)[C@H](CC(C)C)NC(=O)N1CCCCCC1)C(=O)N[C@H](CCC(=O)O)C(=O)N1CCN(c2ccccc2)CC1 [W. Ex. 4, Hexamethyleniminocarbonyl-Leu-D-Trp(COOMe)-D-Nle-D-Glu-Php] ({X1-CO}-L[dW](Moc)[dNle][dE]-{Piperazinyl(4-Ph)}) | 23 nM | 23 nM
CCCC[C@@H](NC(=O)[C@@H](Cc1cn(C=O)c2ccccc12)NC(=O)[C@H](CC(C)C)NC(=O)N1CCCCCC1)C(=O)N[C@H](CC(=O)N1CCN(c2ccccc2)CC1)C(=O)O [W. Ex. 1, Hexamethyleniminocarbonyl-Leu-D-Trp(CHO)-D-Nle-D-Asp(Php)] ({X1-CO}-L[dW](For)[dNle][dD](Piperazinyl(4-Ph))-OH) | 1.8 nM | 130 nM
CCCC[C@@H](NC(=O)[C@@H](Cc1cn(C(=O)OC)c2ccccc12)NC(=O)[C@H](CC(C)C)NC(=O)N1CCCCCC1)C(=O)N[C@H](CC(=O)N1CCN(c2ccccc2)CC1)C(=O)O [W. Ex. 2, Hexamethyleniminocarbonyl-Leu-D-Trp(COOMe)-D-Nle-D-Asp(Php)] ({X1-CO}-L[dW](Moc)[dNle][dD](Piperazinyl(4-Ph))-OH) | 11 nM | 18 nM
CCCC[C@H](NC(=O)N1CCCCCC1)C(=O)N[C@H](Cc1cn(C(=O)OC)c2ccccc12)C(=O)N[C@H](CCCC)C(=O)N[C@H](CC(=O)N1CCN(c2ccccc2)CC1)C(=O)O [W. Ex. 10, Hexamethyleniminocarbonyl-Nle-D-Trp(COOMe)-D-Nle-D-Asp(Php)] ({X1-CO}-[Nle][dW](Moc)[dNle][dD](Piperazinyl(4-Ph))-OH) | 34 nM | 75 nM
CCCC[C@@H](NC(=O)[C@@H](Cc1cn(C(=O)OC)c2ccccc12)NC(=O)[C@H](CC(C)C)NC(=O)N1CCCCCC1)C(=O)N[C@H](CC(=O)N1CCN(c2cccc(OC)c2)CC1)C(=O)O [W. Ex. 6, Hexamethyleniminocarbonyl-Leu-D-Trp(COOMe)-D-Nle-D-Asp (3MeOPhp)] ({X1-CO}-L[dW](Moc)[dNle][dD](X2)-OH) | 28 nM | 29 nM

The remaining lines, values ahead:

IC50 [1] | IC50 [2] | Structure (SMILES)
49 nM | 110 nM | CCCC[C@@H](NC(=O)[C@@H](Cc1cn(C(=O)OC)c2ccccc12)NC(=O)[C@H](CC(C)C)NC(=O)N1CCCCCC1)C(=O)N[C@H](CC(=O)N1CCN(c2cc(C)ccc2OC)CC1)C(=O)O [W. Ex. 7, Hexamethyleniminocarbonyl-Leu-D-Trp(COOMe)-D-Nle-D-Asp(2MeO-5MePhp)] ({X1-CO}-L[dW](Moc)[dNle][dD](X3)-OH)
21 nM | 15 nM | CCCC[C@@H](NC(=O)[C@@H](Cc1cn(C(=O)OC)c2ccccc12)NC(=O)[C@@H](NC(=O)N1CCCCCC1)[C@@H](C)CC)C(=O)N[C@H](CC(=O)N1CCN(c2ccccc2)CC1)C(=O)O [W. Ex. 9, Hexamethyleniminocarbonyl-Ile-D-Trp(COOMe)-D-Nle-D-Asp(Php)] ({X1-CO}-I[dW](Moc)[dNle][dD](Piperazinyl(4-Ph))-OH)
18 nM | 29 nM | CCCC[C@@H](NC(=O)[C@@H](Cc1cn(C(=O)OC)c2ccccc12)NC(=O)[C@H](CC(C)C)NC(=O)N1CCCCCC1)C(=O)N[C@H](CC(=O)N1CCN(c2ccccc2F)CC1)C(=O)O [W. Ex. 8, Hexamethyleniminocarbonyl-Leu-D-Trp(COOMe)-D-Nle-D-Asp (2FPhp)] ({X1-CO}-L[dW](Moc)[dNle][dD](X4)-OH)
